Here are results for nine molecules from US20240316055A1, “METHODS FOR TREATING LEIGH SYNDROME” (DBCC Research, LLC, priority 2023, published 2024).

Common to all, as to type: cell-based
The subject of assay [1] is ECHS1 Fibroblast cells. The assay is described as follows: Propionate potency screen (cell viability, DAPI nuclei count). The conditions noted are these: for concentration-dependent curves: propionate potency screen, FIG. 4; for Propionate assay hits: 10 mM propionate medium, 96 hours, 3-fold serial dilution starting at 10 uM, Z-score >2. As for the experimental part:
The suspension was centrifuged at 200x g for 5 min. The suspension was discarded and the pellet was resuspended in the 10 mM propionate medium (DMEM+10% FBS+10 mM sodium propionate) and seeded at 750 cells/well (50 μL) into the compound wells (1 μM and 10 μM). For the positive control experiment, the cells were suspended in 10 mM propionate medium +5.5 mM glucose +0.01% DMSO and seeded at 750 cells/well (50 μL) into the blank wells. For the negative control experiment, the cells were suspended in the 10 mM propionate medium +0.01% DMSO and seeded at 750 cells/well (50 μL) into the blank wells. […] The plates were then washed 3x with 50 uL/well of PBS. The cells were stained with 25 μL/well of a solution DAPI and left at room temperature for 1 hr. The plates were then washed 3x with 50 uL/well of PBS prior to imaging. Agilent BioTek EL406 Microplate Washer Dispenser was used for the cell fixation and staining protocol. The plates were imaged using GE InCell2200 Cell Analyzer using PerkinElmer Columbus software quantification protocol. The data was analyzed using Genedata, Vortex, and Abase software. A Z-score value of >2 was used for both the Prestwick/Selleck and SPECS library (based on the negative control population) to determine hit selection.
ECHS1 Fibroblast cells were harvested at 70-80% confluent with trypsin and suspended in DMEM+10% FBS. The suspension was centrifuged at 200x g for 5 min. The suspension was discarded and the pellet was resuspended in the either the 5.5 mM galactose medium (DMEM+10% FBS+5.5 mM of galactose) or the 10 mM propionate medium (DMEM+10% FBS+10 mM sodium propionate). […] For the positive control experiment, the cells were suspended in either the 5.5 mM galactose medium or 10 mM propionate medium+5.5 mM glucose+0.01% DMSO and seeded at 750 cells/well (50 μL) into the blank wells. For the negative control experiment, the cells were suspended in the 5.5 mM galactose or 10 mM propionate medium +0.01% DMSO and seeded at 750 cells/well (50 μL) into the blank wells. […] The plates were then washed 3x with 50 μL/well of PBS. The cells were stained with 25 μL/well of a solution of DAPI and left at room temperature for 1 hr. The plates were then washed 3x with 50 μL/well of PBS prior to imaging. Agilent BioTek EL406 Microplate Washer Dispenser was used for the cell fixation and staining protocol. The plates were imaged using GE InCell2200 Cell Analyzer using PerkinElmer Columbus software quantification protocol. The data was analyzed using Genedata, Vortex, and Abase software. A Z-score value of >2 was used for both the Prestwick/Selleck and SPECS library (based on the negative control population) to determine hit selection.

Assay [2] relates to ECHS1 Fibroblast cells. Put plainly: Galactose potency screen (cell viability, DAPI nuclei count). The conditions noted are these: for Galactose assay hits: 5.5 mM galactose medium, 96 hours, 3-fold serial dilution starting at 10 uM, Z-score >2. The method, then: Galactose Screen: Compound library plates were obtained from Prestwick/Selleck and SPECS (7,591 compounds total, 27 compounds/plate/concentration at 1 μM and 10 μM, 384-well plates). ECHS1 Fibroblast cells were harvested at 95% confluent with trypsin and suspended in Dulbecco's Modified Eagle Medium (DMEM)+10% Fetal Bovine Serum (FBS). The suspension was centrifuged at 200x g for 5 min. The suspension was discarded and the pellet was resuspended in the 5.5 mM galactose medium (DMEM+10% FBS+5.5 mM galactose) and seeded at 750 cells/well (50 μL) into the compound wells (1 μM and 10 μM). For the positive control experiment, the cells were suspended in 5.5 mM galactose medium+5.5 mM glucose+0.01% DMSO and seeded at 750 cells/well (50 μL) into the blank wells. For the negative control experiment, the cells were suspended in the 5.5 mM galactose medium+0.01% DMSO and seeded at 750 cells/well (50 μL) into the blank wells. The seeded plates were incubated at 37° C. for 96 hours, then 15 μL/well of 16% paraformaldehyde solution was added to the plates and allowed to sit for 15 min to fix the cells. The plates were then washed 3x with 50 μL/well of phosphate-buffered saline (PBS). The cells were stained with […] of a solution of 4,6-diamidino-2-phenylindole dilactate (DAPI, Invitrogen) and left at room temperature for 1 hr. The plates were then washed 3x with 50 μL/well of PBS prior to imaging. Agilent BioTek EL406 Microplate Washer Dispenser was used for the cell fixation and staining protocol. The plates were imaged using GE InCell2200 Cell Analyzer using PerkinElmer Columbus software quantification protocol. The data was analyzed using Genedata, Vortex, and Abase software. A Z-score value of >2 was used for the Prestwick/Selleck compound library and >3 for the SPECS library (based on the negative control population) to determine hit selection.
ECHS1 Fibroblast cells were harvested at 70-80% confluent with trypsin and suspended in DMEM+10% FBS. The suspension was centrifuged at 200x g for 5 min. The suspension was discarded and the pellet was resuspended in the either the 5.5 mM galactose medium (DMEM+10% FBS+5.5 mM of galactose) or the 10 mM propionate medium (DMEM+10% FBS+10 mM sodium propionate). The cells were seeded at 750 cells/well (50 μL) into a 384-well plate containing the test compounds (3-fold serial dilution across 10 plates, starting at 10 uM). For the positive control experiment, the cells were suspended in either the 5.5 mM galactose medium or 10 mM propionate medium+5.5 mM glucose+0.01% DMSO and seeded at 750 cells/well (50 μL) into the blank wells. For the negative control experiment, the cells were suspended in the 5.5 mM galactose or 10 mM propionate medium +0.01% DMSO and seeded at 750 cells/well (50 μL) into the blank wells. The seeded plates were incubated at 37° C. for 96 hours, then 15 μL/well of 16% paraformaldehyde solution was added to the plates and allowed to sit for 15 min to fix the cells. The plates were then washed 3x with 50 μL/well of PBS. The cells were stained with 25 μL/well of a solution of DAPI and left at room temperature for 1 hr. The plates were then washed 3x with 50 μL/well of PBS prior to imaging. Agilent BioTek EL406 Microplate Washer Dispenser was used for the cell fixation and staining protocol. The plates were imaged using GE InCell2200 Cell Analyzer using PerkinElmer Columbus software quantification protocol. The data was analyzed using Genedata, Vortex, and Abase software. A Z-score value of >2 was used for both the Prestwick/Selleck and SPECS library (based on the negative control population) to determine hit selection.

In assay [3] the test system is ECHS1 patient-derived fibroblasts. The assay is described as follows: Mitochondrial respiration assay (Seahorse). The following applies: 48 hours; for respiration: glucose or galactose conditions, 1, 5 or 10 μM. From the text: To assess the mechanism of action of hit compounds from the screens of previous Examples, which were based on rescue of viability after metabolic challenge, Seahorse assay was used to measure mitochondrial function in response to treatment at multiple concentrations. The Seahorse assay measures the following parameters: oxygen consumption; basal respiration rate; ATP-linked respiration; maximal respiration; reserve capacity; and ATP production rate. At baseline (no treatment), the ECHS1 patient-derived fibroblasts had lower respiration rates than the control fibroblasts in glucose culturing conditions (20% reduction) and in galactose culturing conditions (30% reduction).
ECHS1 patient-derived fibroblasts and age-matched and sex-matched control fibroblasts were initially grown in standard media (DMEM+2 mM glutamine+1 mM pyruvate) containing 10 mM glucose as the energy source. Cells were seeded into specialized 96-well plates at a density of 10,000 cells per well. One day after plating, cells were treated with the test compounds at the concentrations of 0, 1, 5, or 10 μM. Half of the samples were cultured in 10 mM glucose media in addition to the test compounds. The remaining half of the sample were cultured in 10 mM galactose media, which is a metabolic challenge, in addition to the test compound. Test compounds were incubated with cells for 48 hours. According to the standard Seahorse protocol, the following stressors were added to cells in sequential order: 2 μM oligomycin; 5 μM carbonyl cyanide-4-(trifluoromethoxy)phenylhydrazone (FCCP); 9 μM FCCP; 2 μM rotenone and 2 μM antimycin A. Data were normalized to cell number per well using a Hoechst stain for cell nuclei. Two rounds of experiments were conducted. The results were consistent between the two rounds.

Molecules are shown by their SMILES.

On to `COc1ccc(-n2c(C)c([N+](=O)[O-])c3ccc(O)cc32)cc1` [ID-8, 1-(4-methoxyphenyl)-2-methyl-3-nitroindol-6-ol], for which, in the assay on ECHS1 Fibroblast cells [1], the concentration-dependent curves entry is given as “non-linear response”.
For the molecule `Fc1ccc(-c2nc(-c3c(F)cccc3F)[nH]c2-c2ccncc2)cc1` [TA-01, 4-[2-(2,6-difluorophenyl)-4-(4-fluorophenyl)-1H-imidazol-5-yl]pyridine], in the assay with ECHS1 Fibroblast cells [1], the Propionate assay hits result is “hits”. For the same molecule, the Galactose assay hits result with ECHS1 Fibroblast cells [2] is reported as “hits”.
As to `CCC(=O)Nc1cccc(Oc2nc(Nc3ccc(N4CCN(C)CC4)cc3OC)ncc2Cl)c1` [WZ4003, N-[3-[5-chloro-2-[2-methoxy-4-(4-methylpiperazin-1-yl)anilino]pyrimidin-4-yl]oxyphenyl]propanamide], in the assay on ECHS1 Fibroblast cells [1] (propionate assay, FIG. 3), the nuclei count entry is “concentration-dependent increase”. Further, the concentration-dependent curves result with ECHS1 Fibroblast cells [1] was “non-linear response”.
Turning to `CNC(C)C(=O)NC1CCCCC2CCC(C(=O)NC(c3ccccc3)c3cn(CCCCc4ccc(CCCCn5cc(C(NC(=O)C6CCC7CCCCC(NC(=O)C(C)NC)C(=O)N76)c6ccccc6)nn5)cc4)nn3)N2C1=O` [SM-164, (3S,6S, 10aS)-N-[(S)-[1-[4-[4-[4-[4-[(S)-[[(3S,6S,10aS)-6-[[(2S)-2-(methylamino)propanoyl]amino]-5-oxo-2,3,6,7,8,9,10,10a-octahydro-1H-pyrrolo[1,2-a]azocine-3-carbonyl]amino]-phenylmethyl]triazol-1-yl]butyl]phenyl]butyl]triazol-4-yl]-phenylmethyl]-6-[(2S)-2-(methylamino)propanoyl]amino]-5-oxo-2,3,6,7,8,9,10,10a-octahydro-1H-pyrrolo[1,2-a]azocine-3-carboxamide], in the assay with ECHS1 Fibroblast cells [1], the concentration-dependent curves entry is “non-linear response”.
Take `CCOC(=O)C1=C(C)NC(C)=C(C(=O)OC)C1c1cccc(Cl)c1Cl` (stereo not shown) [felodipine, 5-O-ethyl 3-O-methyl 4-(2,3-dichlorophenyl)-2,6-dimethyl-1,4-dihydropyridine-3,5-dicarboxylate]: in assay [3], the “ATP production from glycolysis” value is on record as “increased”; the “basal and maximal respiration” value is listed as “decreased”; the respiration result is recorded as “did not result in major changes”.
In the case of `Cc1ccc(-n2nc(C(C)(C)C)cc2NC(=O)NCc2cc(F)ccc2Oc2ccc3c(cnn3CCO)c2)cc1` [pexmetinib], in the assay on ECHS1 Fibroblast cells [1], the Propionate assay hits result is recorded as “hits” and the concentration-dependent curves entry was “non-linear response”. For the same molecule, the Galactose assay hits entry in the assay on ECHS1 Fibroblast cells [2] is “hits”. Also, the “increase in cell number per well” value in assay [3] (1 μM, both galactose and glucose cultured plates) is reported as 14%. In addition, in assay [3] (most pronounced in the 1-5 μM range), the “total ATP production” value is on record as “some recovery”. In assay [3] (galactose-treated cells), the maximal respiration result was “less pronounced”. Besides, the maximal respiration result in assay [3] (glucose-treated cells) was “increased to similar levels to the control cells”.
With `Cc1cccc(-c2n[nH]cc2-c2ccc3ncccc3n2)n1` [RepSox, 2-[5-(6-methylpyridin-2-yl)-1H-pyrazol-4-yl]-1,5-naphthyridine], the Propionate assay hits entry in the assay with ECHS1 Fibroblast cells [1] is “hits”. In addition, in the assay on ECHS1 Fibroblast cells [2], the Galactose assay hits result is recorded as “hits”. The respiration entry in assay [3] is on record as “did not result in major changes”.
As to `COc1nccc(-c2c(-c3ccc(F)cc3)ncn2[C@H]2CC[C@H](O)CC2)n1` [SB-239063, 4-[4-(4-fluorophenyl)-5-(2-methoxypyrimidin-4-yl)imidazol-1-yl]cyclohexan-1-ol], the nuclei count entry with ECHS1 Fibroblast cells [2] (galactose assay, FIG. 1) was “concentration-dependent increase”. In addition, the concentration-dependent curves entry with ECHS1 Fibroblast cells [2] (galactose potency screen, FIG. 2) is on record as “non-linear response”.
Turning to `CCCCOc1c(C(=O)c2c(F)cc(C)cc2F)cnc2n[nH]cc12` [BMS-265246, (4-butoxy-2H-pyrazolo[3,4-b]pyridin-5-yl)-(2,6-difluoro-4-methylphenyl)methanone], the concentration-dependent curves entry in the assay on ECHS1 Fibroblast cells [1] is listed as “non-linear response”.
